According to US8445636B2, “Antimicrobial and anticancer lipopeptides” (Yeda Research & Development Co. Ltd., priority 2003, dated 2013):
Converted amounts (≈) assume the structure as drawn. Read-outs that look alike come from different tables or passages of the source. Non-standard residues stand in square brackets, D forms with d. Residues, ends and D or L forms follow the SMILES beside them. *: point of attachment. Palmitoyl = CCCCCCCCCCCCCCCC(=O)*; Myristoyl = CCCCCCCCCCCCCC(=O)*; Decanoyl = CCCCCCCCCC(=O)*

Assays:
Type in all cases: cell-based
[1] = tested on: Acinetobacter baumannii ATCC 19606; conditions: pH 7.4
In short: (§1)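 Lipopeptides were serially diluted 2-fold in water and combined with an equal volume of bacterial suspension (1×10^6 CFU/ml) in LB medium, normally at pH 7.4. Plates were incubated 18-20 h at 37° C, absorbance at 600 nm was measured, and the MIC was taken as the concentration fully inhibiting growth.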

[2] = tested on: Enterobacter cloacae ATCC 49141; conditions: Table 4; pH 7.4
In short: as §1

[3] = tested on: Enterococcus faecalis ATCC 29212; conditions: Table 4; pH 7.4
In short: as §1

[4] = tested on: Escherichia coli ATCC 25922; conditions: pH 7.4
In short: as §1

[5] = tested on: Pseudomonas aeruginosa ATCC 27853
In short: as §1

[6] = tested on: Staphylococcus aureus ATCC 6538P
In short: as §1

[7] = tested on: methicilin-resistant Staphylococcus aureus (MRSA) ATCC 700698; conditions: Table 4; pH 7.4
In short: as §1

[8] = tested on: B. subtilis ATCC 6051; conditions: Table 8, lipopeptides vs parent peptides; pH 7.4
[9] = tested on: Candida albicans ATCC 10231; experiment: microbe, parasite or virus in culture
In short: (§2)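 MIC = lowest concentration giving 100% growth inhibition by A620 after 24-48 h at 35 °C with agitation. Inoculum: 1×10^4 CFU/ml (pre-mix) in RPMI 1640/0.165 M MOPS; pH 7.4 by default, 5.5 where noted. Peptide as twofold dilution series in water.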

[10] = tested on: Cryptococcus neoformans ATCC 66031; experiment: microbe, parasite or virus in culture; conditions: Table 10; pH 7.4
In short: as §2

[11] = tested on: Cryptococcus neoformans ATCC MYA-422; experiment: microbe, parasite or virus in culture; conditions: for Minimal Inhibitory Concentration, C. neoformans ATCC MYA-422: ATCC MYA-422, pH 7.4
[12] = tested on: Aspergillus fumigatus ATCC 26430; experiment: microbe, parasite or virus in culture
[13] = tested on: Aspergillus flavus ATCC 9643; conditions: Table 14, lipopeptides vs parent peptides; pH 7.4
[14] = tested on: Aspergillus niger ATCC 9642; conditions: Table 14, lipopeptides vs parent peptides; pH 7.4
Protocol: The antifungal activity of the lipopeptides was examined in sterile 96-well plates (Nunc F96 microtiter plates) in a final volume of 200 μL as follows: 100 µl of a suspension containing fungi at a concentration of 1×10^4 Colony-Forming Units (CFU)/ml in culture medium (RPMI 1640, 0.165 M MOPS with L-glutamine, without NaHCO3) at pH 7.4 or pH 5.5 (adjustment of the pH was done by diluted solutions of HCl and NaOH) were added to 100 μl of water containing the peptide in serial 2-fold dilutions in water. The fungi were incubated in the presence of the lipopeptides for 24-48 h at 35° C. in a Binder KB115 incubator under agitation. Growth inhibition was determined by measuring the absorbance at 620 nm with a Microplate autoreader E1309 (Bio-Tek Instruments). Antifungal activity is expressed as the minimal inhibitory concentration (MIC), the concentration at which 100% inhibition of fungi growth was observed after the incubation time mentioned above. The fungi used were: Aspergillus niger ATCC 9642, Candida albicans ATCC 10231 and Cryptococcus neoformans ATCC 66031. If not indicated otherwise, the fungi growth was detected at pH 7.4.

[15] = tested on: human red blood cells (hRBC); experiment: Hemolytic activity, release of hemoglobin at 540 nm
Protocol: Fresh human red blood cells (hRBC) with EDTA were rinsed 3 times with PBS (35 mM phosphate buffer/0.15 M NaCl, pH 7.3) by centrifugation for 10 min at 800 g and resuspended in PBS. Peptides dissolved in PBS were then added to 50 μl of a solution of the stock hRBC in PBS to reach a final volume of 100 μl (final erythrocyte concentration, 4% v/v). The resulting suspension was incubated under agitation for 60 min at 37° C. The samples were then centrifuged at 800×g for 10 min. Release of hemoglobin was monitored by measuring the absorbance of the supernatant at 540 nm. Controls for zero hemolysis (blank) and 100% hemolysis consisted of hRBC suspended in PBS and Triton 1%, respectively.

[16] = tested on: E. aerogenes ATCC 35029; conditions: ATCC 35029, pH 7.4
In short: as §1

[17] = tested on: E. coli ATCC 35218; conditions: ATCC 35218, pH 7.4
In short: as §1

[18] = Cytotoxicity, XTT viability, non-cancer cells; conditions: mouse, non-cancer cell line, 24 h incubation, read-out: LC50, 3T3
Protocol: Prostate cancer cell lines (CL1 and 22RV1; ATCC, USA) were grown in RPMI-1640 supplemented with 10% FCS (Biological Industries, Beit Haemek, Israel). N1H-3T3 mouse fibroblast cell line (ATCC, USA) was grown in DMEM supplemented with 10% bovine serum. To test cytotoxicity against the cancer cells, aliquots of medium containing 1×10^4 cells were distributed into a 96-well plate (Falcon). After one day, the media were replaced with 90 μl of fresh media and 10 μl of a solution containing different concentrations of the peptides. The plate was then incubated for 24 h before adding to each well 50 μl of XTT reaction solution (Biological Industries, Beit Haemek, Israel); viability was determined as previously described (Papo et al., (2003) J. Biol. Chem. 278:21018-23). The LC50 (concentration at which 50% of the cells die) for each peptide was obtained from the dose-dependent cell viability curves.

[19] = Table 8, lipopeptides vs parent peptides
[20] = Table 8, lipopeptides vs parent peptides, pH 7.4
[21] = Table 14, lipopeptides vs parent peptides, pH 7.4

CCCCCCCCCCCCCCCC(=O)N[C@@H](CCCCN)C(=O)N[C@@H](C)C(=O)N[C@H](C)C(=O)N[C@H](C)C(=O)N[C@@H](CCCCN)C(=O)N[C@@H](C)C(=O)N[C@@H](C)C(=O)N[C@H](C)C(=O)N[C@@H](CCCCN)C(=O)N[C@H](C)C(=O)N[C@@H](C)C(=O)N[C@@H](CCCCN)C(N)=O [lipopeptide 5, (CH3—(CH2)14—CO—)-Lys-Ala-D-Ala-D-Ala-Lys-Ala-Ala-D-Ala-Lys-D-Ala-Ala-Lys-NH2] (Palmitoyl-KA[dA][dA]KAA[dA]K[dA]AK-NH2)
Minimal Inhibitory Concentration, A. Baumaannii ([1]; Table 4): 6.25 µM
Minimal Inhibitory Concentration, A. baumannii ATCC 19606 [1, 19]: 6.25 µM
Minimal Inhibitory Concentration, E. cloacae [2]: 25 µM
Minimal Inhibitory Concentration, E. faecalis [3]: 12.5 µM
Minimal Inhibitory Concentration, E. coli ([4]; Table 4): 6.25 µM
Minimal Inhibitory Concentration, E. coli (ATCC 25922) [4, 19]: 6.25 µM
Minimal Inhibitory Concentration, P. Aeruginosa ([5]; Table 4, pH 7.4): 6.25 µM
Minimal Inhibitory Concentration, P. aeruginosa ATCC 27853 [5, 20]: 6.25 µM
Minimal Inhibitory Concentration, S. aureus ([6]; Table 4, pH 7.4): 12.5 µM
Minimal Inhibitory Concentration, S. aureus ATCC 6538P [6, 20]: 12.5 µM
Minimal Inhibitory Concentration, S. aureus (MRSA) [7]: 12.5 µM
Minimal Inhibitory Concentration, B. subtilis (ATCC 6051) [8]: 3.125 µM
Minimal Inhibitory Concentration, C. albicans ATCC 10231 ([9]; Table 10, pH 7.4): 12.5 µM
MIC ([9]; Table 14, lipopeptides vs parent peptides, pH 7.4, read-out: Minimal Inhibitory Concentration, Candida Albicans (ATCC 10231)): 12.5 µM (≈ 16.7 µg/mL)
Minimal Inhibitory Concentration, C. neoformans ATCC 66031 [10]: 1.56 µM
Minimal Inhibitory Concentration, Cryptococcus neoformans (ATCC MYA-422) [11, 21]: 1.56 µM
Minimal Inhibitory Concentration, A. fumigatus ATCC 26430 ([12]; Table 10, pH 7.4): 100 µM
Minimal Inhibitory Concentration, Aspergillus fumigatus (ATCC 26430) [12, 21]: 100 µM
Minimal Inhibitory Concentration, Aspergillus flavus (ATCC 9643) [13]: 80 µM
Minimal Inhibitory Concentration, Aspergillus niger (ATCC 9642) [14]: 10 µM
hemolytic activity ([15]; at concentrations lower than 12 μM, human red blood cells (FIGS. 1-5)): do not exhibit significant hemolytic activity
hemolytic activity ([15]; at concentrations lower than 12.5 μM, human red blood cells, 1 h): not hemolytic

CCCCCCCCCCCCCC(=O)N[C@H](CC(C)C)C(=O)N[C@@H](CCCCN)C(=O)N[C@@H](CCCCN)C(=O)N[C@H](CC(C)C)C(=O)N[C@H](CC(C)C)C(=O)N[C@@H](CCCCN)C(=O)N[C@@H](CCCCN)C(=O)N[C@H](CC(C)C)C(=O)N[C@H](CC(C)C)C(=O)N[C@@H](CCCCN)C(=O)N[C@@H](CCCCN)C(=O)N[C@H](CC(C)C)C(N)=O [lipopeptide 23, (CH3-(CH2)12-CO-)-D-Leu-Lys-Lys-D-Leu-D-Leu-Lys-Lys-D-Leu-D-Leu-Lys-Lys-D-Leu-NH2] (Myristoyl-[dL]KK[dL][dL]KK[dL][dL]KK[dL]-NH2)
Minimal Inhibitory Concentration, E. aerogenes ATCC 35029 [16]: >50 µM
Minimal Inhibitory Concentration, E. coli ATCC 35218 [17]: 50 µM
Minimal Inhibitory Concentration, P. aeruginosa ATCC 27853 ([5]; ATCC 27853, pH 7.4): 50 µM
Minimal Inhibitory Concentration, S. aureus ATCC 6538P ([6]; ATCC 6538, pH 7.4): 50 µM
Minimal Inhibitory Concentration, C. albicans ATCC 10231 ([9]; ATCC 10231, pH 7.4): 1.56 µM
Minimal Inhibitory Concentration, C. neoformans ATCC MYA-422 [11]: 0.78 µM
Minimal Inhibitory Concentration, A. fumigatus ATCC 26430 ([12]; ATCC 26430, pH 7.4): 1.56 µM
CC50 at 24 h [18]: 50 µM

CCCCCCCCCC(=O)N[C@H](CC(C)C)C(=O)N[C@@H](CCCCN)C(=O)N[C@@H](CCCCN)C(=O)N[C@H](CC(C)C)C(=O)N[C@H](CC(C)C)C(=O)N[C@@H](CCCCN)C(=O)N[C@@H](CCCCN)C(=O)N[C@H](CC(C)C)C(=O)N[C@H](CC(C)C)C(=O)N[C@@H](CCCCN)C(=O)N[C@@H](CCCCN)C(=O)N[C@H](CC(C)C)C(N)=O [lipopeptide 21, (CH3-(CH2)8-CO-)-D-Leu-Lys-Lys-D-Leu-D-Leu-Lys-Lys-D-Leu-D-Leu-Lys-Lys-D-Leu-NH2] (Decanoyl-[dL]KK[dL][dL]KK[dL][dL]KK[dL]-NH2)
Minimal Inhibitory Concentration, E. aerogenes ATCC 35029 [16]: 50 µM
Minimal Inhibitory Concentration, E. coli ATCC 35218 [17]: 12.5 µM
Minimal Inhibitory Concentration, P. aeruginosa ATCC 27853 ([5]; ATCC 27853, pH 7.4): 12.5 µM
Minimal Inhibitory Concentration, S. aureus ATCC 6538P ([6]; ATCC 6538, pH 7.4): 6.25 µM
Minimal Inhibitory Concentration, C. albicans ATCC 10231 ([9]; ATCC 10231, pH 7.4): 25 µM
Minimal Inhibitory Concentration, C. neoformans ATCC MYA-422 [11]: 1.56 µM
Minimal Inhibitory Concentration, A. fumigatus ATCC 26430 ([12]; ATCC 26430, pH 7.4): 12.5 µM

CCCCCCCCCCCCCCCC(=O)N[C@H](CC(C)C)C(=O)N[C@@H](CCCCN)C(=O)N[C@@H](CCCCN)C(=O)N[C@H](CC(C)C)C(=O)N[C@H](CC(C)C)C(=O)N[C@@H](CCCCN)C(=O)N[C@@H](CCCCN)C(=O)N[C@H](CC(C)C)C(=O)N[C@H](CC(C)C)C(=O)N[C@@H](CCCCN)C(=O)N[C@@H](CCCCN)C(=O)N[C@H](CC(C)C)C(N)=O [lipopeptide 24, (CH3-(CH2)14-CO-)-D-Leu-Lys-Lys-D-Leu-D-Leu-Lys-Lys-D-Leu-D-Leu-Lys-Lys-D-Leu-NH2] (Palmitoyl-[dL]KK[dL][dL]KK[dL][dL]KK[dL]-NH2)
Minimal Inhibitory Concentration, E. aerogenes ATCC 35029 [16]: >50 µM
Minimal Inhibitory Concentration, E. coli ATCC 35218 [17]: 50 µM
Minimal Inhibitory Concentration, P. aeruginosa ATCC 27853 ([5]; ATCC 27853, pH 7.4): >50 µM
Minimal Inhibitory Concentration, S. aureus ATCC 6538P ([6]; ATCC 6538, pH 7.4): 50 µM
Minimal Inhibitory Concentration, C. albicans ATCC 10231 ([9]; ATCC 10231, pH 7.4): 1.56 µM
Minimal Inhibitory Concentration, C. neoformans ATCC MYA-422 [11]: 0.78 µM
Minimal Inhibitory Concentration, A. fumigatus ATCC 26430 ([12]; ATCC 26430, pH 7.4): 1.56 µM
CC50 at 24 h [18]: 50 µM

CC(C)C[C@@H](N)C(=O)N[C@@H](CCCCN)C(=O)N[C@@H](CCCCN)C(=O)N[C@H](CC(C)C)C(=O)N[C@H](CC(C)C)C(=O)N[C@@H](CCCCN)C(=O)N[C@@H](CCCCN)C(=O)N[C@H](CC(C)C)C(=O)N[C@H](CC(C)C)C(=O)N[C@@H](CCCCN)C(=O)N[C@@H](CCCCN)C(=O)N[C@H](CC(C)C)C(N)=O [[D]-L6K6, LKKLLKKLLKKL, reference compound] (H-[dL]KK[dL][dL]KK[dL][dL]KK[dL]-NH2; N-terminus assumed)
Minimal Inhibitory Concentration, E. aerogenes ATCC 35029 [16]: >50 µM
Minimal Inhibitory Concentration, E. coli ATCC 35218 [17]: 50 µM
Minimal Inhibitory Concentration, P. aeruginosa ATCC 27853 ([5]; ATCC 27853, pH 7.4): >50 µM
Minimal Inhibitory Concentration, S. aureus ATCC 6538P ([6]; ATCC 6538, pH 7.4): >50 µM
Minimal Inhibitory Concentration, C. albicans ATCC 10231 ([9]; ATCC 10231, pH 7.4): >50 µM
Minimal Inhibitory Concentration, C. neoformans ATCC MYA-422 [11]: >50 µM
Minimal Inhibitory Concentration, A. fumigatus ATCC 26430 ([12]; ATCC 26430, pH 7.4): >50 µM
CC50 at 24 h [18]: > 100 µM
